This note sets out measurements from PMC5626011 (Bioorganic & Medicinal Chemistry Letters, 2017).

One assay concerns EBOV (Makona). The assay is classed as cell-based, Ebola virus (EBOV).
Assay [1] deals with recombinant Ebola virus Makona expressing ZsGreen (rEBOV/ZsG). The assay is classed as cell-based.
The next assay concerns MARV (Ci67). The assay is classed as cell-based, Marburg virus (MARV).
Another assay has as its system SUDV (Gulu). In kind it is cell-based, Sudan virus (SUDV).

As for `COc1nc(N)ncc1-c1cn(COCCO)cn1` [compound 1], in the assay on EBOV (Makona), the “EBOV EC50” value is “no detectable activity”. For the same compound, the EC50 in assay [1] (read-out: EBOV EC50) turned out to be 2200 ± 300 nM. Further, the “MARV EC50” value in the assay with MARV (Ci67) is given as “no detectable activity”. In the assay with SUDV (Gulu), the “SUDV EC50” value is listed as “no detectable activity”.
As to `CCC(CC)COC(=O)[C@H](C)N[P@](=O)(OCCOCn1cnc(-c2cnc(N)nc2OC)c1)Oc1ccccc1` [compound 3], the “fold less potent than compound 1” value in assay [1] was about 10 fold.
